These results are taken from patent US20230085307A1, “PYRIDAZINONE COMPOUND AND HERBICIDE” (NISSAN CHEMICAL CORPORATION, priority 2019, published 2023).

The test system of test [1] is green foxtail. Description: Test Example 5: herbicidal effect by foliage application, plastic box (Table 20, symbol G). The class given is in vivo, green foxtail (Setaria viridis). Conditions: foliage application, evaluated three weeks after application; for G: green foxtail, herbicidal effect (criteria 0-5): AAH 320 g/ha. The essentials:
(§1)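 Foliar spray test: emulsion formulation diluted in water to a set application rate, sprayed onto 14-day-old plants raised in diluvial soil at 25° C to 30° C under glass. Both herbicidal effect and crop effect rated visually three weeks later.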

Test [2] deals with chickweed. Description: Test Example 5: herbicidal effect by foliage application, plastic box (Table 20, symbol P). In kind it is in vivo, common chickweed (Stellaria media). Conditions: foliage application, evaluated three weeks after application; for P: chickweed, herbicidal effect (criteria 0-5): AAH 320 g/ha. The essentials: as §1
Test [3] deals with blackgrass. Description: Test Example 4: herbicidal effect by soil treatment (Table 19, symbol J). Conditions: amount of applied herbicide 320 g/ha. In kind it is in vivo, blackgrass (Alopecurus myosuroides). The essentials: (§2)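 Step 1: sow seeds in sterilized diluvial soil, cover ~1.5 cm. Step 2: spray diluted emulsion onto soil surface at predetermined rate. Step 3: greenhouse, 25–30° C, three weeks. Step 4: grade effect on each plant by earlier criteria.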

Test [4] relates to windgrass. Description: Test Example 4: herbicidal effect by soil treatment (Table 19, symbol L). In kind it is in vivo, windgrass (Apera spica-venti). Conditions: amount of applied herbicide 320 g/ha. The essentials: as §2
Test [5] has as its system Japanese bulrush. The test is described as follows: Test Example 1: herbicidal activity, application before weed generation under submerged conditions (Table 16, symbol B). The class given is in vivo, Japanese bulrush (Schoenoplectus juncoides). Conditions: 320 g/ha applied herbicide. The essentials:
(§3)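 Alluvial soil was flooded to 4 cm depth, weed seeds were sown mixed and 2.5-leaf rice seedlings were transplanted. On sowing day, the compound's emulsion, diluted in water to a set dose, was applied to the water surface. Plants grew at 25–30 °C and were scored 0–5 after three weeks.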

In test [6] the test system is late watergrass. The test is described as follows: Test Example 1: herbicidal activity, application before weed generation under submerged conditions (Table 16, symbol A). The class given is in vivo, late watergrass (Echinochloa oryzicola). Conditions: 320 g/ha applied herbicide. The essentials: as §3
In test [7] the test system is oval-leafed pondweed. The test is described as follows: Test Example 1: herbicidal activity, application before weed generation under submerged conditions (Table 16, symbol C). Conditions: 320 g/ha applied herbicide. In kind it is in vivo, oval-leafed pondweed (Monochoria vaginalis). The essentials:
as §3

Test [8] relates to persian speedwell. Description: Test Example 4: herbicidal effect by soil treatment (Table 19, symbol R). The class given is in vivo, Persian speedwell (Veronica persica). Conditions: amount of applied herbicide 320 g/ha. The essentials:
as §2

The test system of test [9] is oval-leafed pondweed. The test is described as follows: Test Example 2: herbicidal activity, application during weed generation under submerged conditions (Table 17, symbol C). Conditions: AAH 320 g/ha; application during weed generation, submerged conditions. In kind it is in vivo, oval-leafed pondweed (Monochoria vaginalis). The essentials: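 Effect on each weed is rated three weeks post-treatment, using the same scoring criteria as the preceding test. Plants grow from mixed-sown seed in flooded alluvial soil (4 cm water) at 25° C. to 30° C., and are treated at one to two leaves with diluted emulsion dropped onto the water.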

In test [10] the test system is Chinese sprangletop. The test is described as follows: Test Example 3: herbicidal effect by foliage application, Wagner pot (Table 18, symbol D). In kind it is in vivo, chinese sprangletop (Leptochloa chinensis). Conditions: amount of applied herbicide 320 g/ha. Put shortly: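 Plants were sown in alluvial soil held under 0.1–0.5 cm standing water and grown 14 days in a greenhouse at 25–30 °C. An emulsifiable formulation, water-diluted to the set dose, was then sprayed onto the foliage, and effects were scored three weeks later using previously defined criteria.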

The subject of test [11] is velvetleaf. The test is described as follows: Test Example 5: herbicidal effect by foliage application, plastic box (Table 20, symbol M). Conditions: foliage application, evaluated three weeks after application; for M: velvetleaf, herbicidal effect (criteria 0-5): AAH 320 g/ha. In kind it is in vivo, velvetleaf (Abutilon theophrasti). The essentials:
as §1

With `CCCC(=O)Oc1c(C)nn(C)c(=O)c1-c1c(-c2ccc(SCC)cc2)sc2ccc(F)cc12` [2-245], the “herbicidal effect on G: green foxtail (criteria 0-5)” value in [1] (320 g/ha) was 5 (Herbicidal rate of 90% or more (almost completely withered)). The “herbicidal effect on P: chickweed (criteria 0-5)” value in test [2] (320 g/ha) is 5 (Herbicidal rate of 90% or more (almost completely withered)). The “herbicidal effect on J: blackgrass” value in test [3] is 3 (Herbicidal rate of 40% or more and less than 70%). Besides, in test [4], the “herbicidal effect on L: windgrass” value is 3 (Herbicidal rate of 40% or more and less than 70%). In addition, the “Herbicidal effect on B: Japanese bulrush (grade 0-5)” value (from here on “Herbicidal effect on B”) in [5] was 3 (Herbicidal rate of 40% or more and less than 70%). In addition, the “Herbicidal effect on A: late watergrass (grade 0-5)” value in test [6] was 4 (Herbicidal rate of 70% or more and less than 90%). Moreover, in [7], the “Herbicidal effect on C: oval-leafed pondweed (grade 0-5)” value (from here on “Herbicidal effect on C”) is 3 (Herbicidal rate of 40% or more and less than 70%). Moreover, the “herbicidal effect on R: persian speedwell” value (from here on “herbicidal effect on R”) in [8] was 5 (Herbicidal rate of 90% or more (almost completely withered)). The “herbicidal effect rating, C: oval-leafed pondweed” value (“herbicidal effect rating, C” for short) in [9] was 4 (Herbicidal rate of 70% or more and less than 90%). For the same compound, in test [10], the “herbicidal effect on D: Chinese sprangletop” value (shortened to “herbicidal effect on D”) is 4 (Herbicidal rate of 70% or more and less than 90%). Besides, the “herbicidal effect on M: velvetleaf (criteria 0-5)” value in test [11] (320 g/ha) is 5 (Herbicidal rate of 90% or more (almost completely withered)).
As to `Cc1nn(C)c(=O)c(-c2c(-c3ccc(SC4CC4)cc3)sc3ccc(F)cc23)c1O` [2-254], the “G: green foxtail, herbicidal effect (criteria 0-5)” value (“G: green foxtail, herbicidal effect” below) in test [1] is given as 5 (Herbicidal rate of 90% or more (almost completely withered)). Also, in test [2], the “P: chickweed, herbicidal effect (criteria 0-5)” value (“P: chickweed, herbicidal effect” for short) was 5 (Herbicidal rate of 90% or more (almost completely withered)). Moreover, in test [3], the “herbicidal effect on J: blackgrass” value was 4 (Herbicidal rate of 70% or more and less than 90%). The “herbicidal effect on L: windgrass” value in test [4] was 3 (Herbicidal rate of 40% or more and less than 70%). Further, the “Herbicidal effect on B” value in test [5] is 3 (Herbicidal rate of 40% or more and less than 70%). Further, in [6], the “Herbicidal effect on A: late watergrass (grade 0-5)” value is given as 5 (Herbicidal rate of 90% or more (almost completely withered)). Also, the “Herbicidal effect on C” value in test [7] was 1 (Herbicidal rate of 5% or more and less than 20%). The “herbicidal effect on R” value in test [8] is 5 (Herbicidal rate of 90% or more (almost completely withered)). Besides, in [9], the “herbicidal effect rating, C” value is 0 (Herbicidal rate of 5% or less (almost no effect)). Also, the “herbicidal effect on D” value in test [10] is recorded as 5 (Herbicidal rate of 90% or more (almost completely withered)). In test [11], the “M: velvetleaf, herbicidal effect (criteria 0-5)” value (from here on “M: velvetleaf, herbicidal effect”) is on record as 5 (Herbicidal rate of 90% or more (almost completely withered)).
Take `Cc1nn(C)c(=O)c(-c2c(-c3ccc([S+]([O-])C(C)C)cc3)sc3ccc(F)cc23)c1O` (stereo not drawn) [2-257]: in [1], the “G: green foxtail, herbicidal effect” value was 4 (Herbicidal rate of 70% or more and less than 90%). The “P: chickweed, herbicidal effect” value in test [2] is 5 (Herbicidal rate of 90% or more (almost completely withered)). The “herbicidal effect on J: blackgrass” value in test [3] was 1 (Herbicidal rate of 5% or more and less than 20%). In addition, the “herbicidal effect on L: windgrass” value in test [4] was 0 (Herbicidal rate of 5% or less (almost no effect)). Besides, the “Herbicidal effect on B” value in test [5] was 0 (Herbicidal rate of 5% or less (almost no effect)). Moreover, the “Herbicidal effect on A: late watergrass (grade 0-5)” value in test [6] is 1 (Herbicidal rate of 5% or more and less than 20%). In addition, in test [7], the “Herbicidal effect on C” value is 2 (Herbicidal rate of 20% or more and less than 40%). Further, the “herbicidal effect on R” value in test [8] was 5 (Herbicidal rate of 90% or more (almost completely withered)). The “herbicidal effect rating, C” value in test [9] is on record as 0 (Herbicidal rate of 5% or less (almost no effect)). Also, the “herbicidal effect on D” value in test [10] is 3 (Herbicidal rate of 40% or more and less than 70%). Besides, the “M: velvetleaf, herbicidal effect” value in [11] was 5 (Herbicidal rate of 90% or more (almost completely withered)).
With `Cc1nn(C)c(=O)c(-c2c(-c3ccc(S(C)(=O)=O)cc3)sc3ccc(F)cc23)c1O` [2-258], the “G: green foxtail, herbicidal effect” value in test [1] was 5 (Herbicidal rate of 90% or more (almost completely withered)). Further, the “P: chickweed, herbicidal effect” value in test [2] is 5 (Herbicidal rate of 90% or more (almost completely withered)). For the same compound, the “herbicidal effect on J: blackgrass” value in [3] is 5 (Herbicidal rate of 90% or more (almost completely withered)). In test [4], the “herbicidal effect on L: windgrass” value was 4 (Herbicidal rate of 70% or more and less than 90%). For the same compound, in [5], the “Herbicidal effect on B” value was 3 (Herbicidal rate of 40% or more and less than 70%). For the same compound, the “Herbicidal effect on A: late watergrass (grade 0-5)” value in test [6] was 5 (Herbicidal rate of 90% or more (almost completely withered)). Also, the “Herbicidal effect on C” value in test [7] is listed as 0 (Herbicidal rate of 5% or less (almost no effect)). Further, the “herbicidal effect on R” value in [8] is 5 (Herbicidal rate of 90% or more (almost completely withered)). Also, the “herbicidal effect rating, C” value in [9] is 3 (Herbicidal rate of 40% or more and less than 70%). Also, the “herbicidal effect on D” value in test [10] is listed as 5 (Herbicidal rate of 90% or more (almost completely withered)). In addition, the “M: velvetleaf, herbicidal effect” value in [11] was 5 (Herbicidal rate of 90% or more (almost completely withered)).
In the case of `Cc1nn(C)c(=O)c(-c2c(-c3ccc(OC(F)F)cc3)sc3ccc(F)cc23)c1OC(=O)c1ccc(Cl)cc1` [2-286], the “G: green foxtail, herbicidal effect” value in test [1] is on record as 5 (Herbicidal rate of 90% or more (almost completely withered)). Also, in test [2], the “P: chickweed, herbicidal effect” value is recorded as 5 (Herbicidal rate of 90% or more (almost completely withered)). In addition, in test [3], the “herbicidal effect on J: blackgrass” value was 0 (Herbicidal rate of 5% or less (almost no effect)). Besides, the “herbicidal effect on L: windgrass” value in [4] was 0 (Herbicidal rate of 5% or less (almost no effect)). The “Herbicidal effect on B” value in test [5] was 3 (Herbicidal rate of 40% or more and less than 70%). Moreover, the “Herbicidal effect on A: late watergrass (grade 0-5)” value in [6] is listed as 5 (Herbicidal rate of 90% or more (almost completely withered)). Besides, in test [7], the “Herbicidal effect on C” value was 1 (Herbicidal rate of 5% or more and less than 20%). Also, the “herbicidal effect on R” value in test [8] was 3 (Herbicidal rate of 40% or more and less than 70%). Also, in test [9], the “herbicidal effect rating, C” value is 3 (Herbicidal rate of 40% or more and less than 70%). Moreover, in test [10], the “herbicidal effect on D” value was 4 (Herbicidal rate of 70% or more and less than 90%). Moreover, the “M: velvetleaf, herbicidal effect” value in test [11] is given as 5 (Herbicidal rate of 90% or more (almost completely withered)).
On to `Cc1nn(C)c(=O)c(-c2c(-c3ccc(OC(F)F)cc3)sc3ccc(F)cc23)c1OC(=O)C1CCCO1` (stereo not drawn) [2-289], for which the “G: green foxtail, herbicidal effect” value in test [1] is 5 (Herbicidal rate of 90% or more (almost completely withered)). In addition, in test [2], the “P: chickweed, herbicidal effect” value was 5 (Herbicidal rate of 90% or more (almost completely withered)). Further, the “herbicidal effect on J: blackgrass” value in test [3] is given as 5 (Herbicidal rate of 90% or more (almost completely withered)). Besides, the “herbicidal effect on L: windgrass” value in test [4] was 4 (Herbicidal rate of 70% or more and less than 90%). Besides, in test [5], the “Herbicidal effect on B” value is 3 (Herbicidal rate of 40% or more and less than 70%). Also, in test [6], the “Herbicidal effect on A: late watergrass (grade 0-5)” value was 4 (Herbicidal rate of 70% or more and less than 90%). Moreover, in test [7], the “Herbicidal effect on C” value is 3 (Herbicidal rate of 40% or more and less than 70%). For the same compound, the “herbicidal effect on R” value in test [8] is on record as 5 (Herbicidal rate of 90% or more (almost completely withered)). The “herbicidal effect rating, C” value in test [9] was 4 (Herbicidal rate of 70% or more and less than 90%). The “herbicidal effect on D” value in test [10] is 3 (Herbicidal rate of 40% or more and less than 70%). The “M: velvetleaf, herbicidal effect” value in test [11] was 5 (Herbicidal rate of 90% or more (almost completely withered)).
